Assay results reported in PMC5362750, “Discovery of Potent, Selective, and Orally Bioavailable Small-Molecule Modulators of the Mediator Complex-Associated Kinases CDK8 and CDK19” (Journal of Medicinal Chemistry, 2016).
In brackets after ≈: the same amount, converted by molar mass.

Assays:
[1] = molecular target: T1, IGF-1R, ACTIVATED (Homo sapiens, UniProt P08069); assay: Kinase panel (Millipore); type: biochemical; details: 1 µM, ATP at Km
T1 construct: purchased Millipore (KinaseProfiler) kinase panel

[2] = molecular target: T2, CRF1 (h) (Homo sapiens, UniProt P34998); assay: CEREP binding assay; details: agonist radioligand, read-out: % Inhibition of Control Specific Binding
T2 construct: purchased Millipore (KinaseProfiler) kinase panel

[3] = test system: sigma (non-selective) (h); details: 10 µM, agonist radioligand
[4] = molecular target: CCK2 (CCKB) (h) (Homo sapiens, UniProt P32239); assay: CEREP binding assay; details: agonist radioligand, read-out: % Inhibition of Control Specific Binding
[5] = molecular target: JNK2ALPHA2 (Homo sapiens, UniProt P45984); assay: Kinase panel (Millipore); type: biochemical; details: 1 µM, ATP at Km
[6] = molecular target: CAMKI (Homo sapiens, UniProt Q14012); assay: Kinase panel (Millipore); type: biochemical; details: 1 µM, ATP at Km
[7] = molecular target: MSK1 (Homo sapiens, UniProt O75582); assay: Kinase panel (Millipore); type: biochemical; details: 1 µM, ATP at Km
[8] = molecular target: cMET (Y1248H) (Homo sapiens, UniProt P08581, Y1230H); details: 1 µM, ATP at Km
[9] = molecular target: MARK1 (Homo sapiens, UniProt Q9P0L2); assay: Kinase panel (Millipore); type: biochemical; details: 1 µM, ATP at Km
[10] = molecular target: D2S (h) (Homo sapiens, UniProt P14416); assay: biochemical; details: read-out: % Inhibition of Control Specific Binding
[11] = molecular target: ABL (M351T) (Homo sapiens, UniProt P00519, M351T); details: 1 µM, ATP at Km
[12] = molecular target: GSK3ALPHA (Homo sapiens, UniProt P49840); assay: Kinase panel (Millipore); type: biochemical; details: 1 µM, ATP at Km
[13] = molecular target: CRAF (Homo sapiens, UniProt P04049); assay: Kinase panel (Millipore); type: biochemical; details: 1 µM, ATP at Km
[14] = molecular target: T3, FGFR3 (Homo sapiens, UniProt P22607); assay: Kinase panel (Millipore); type: biochemical; details: 1 µM, ATP at Km
T3 construct: purchased Millipore (KinaseProfiler) kinase panel

[15] = molecular target: DAPK2 (Homo sapiens, UniProt Q9UIK4); assay: Kinase panel (Millipore); type: biochemical; details: 1 µM, ATP at Km
[16] = molecular target: RET(V804M) (Homo sapiens, UniProt P07949, V804M); details: 1 µM, ATP at Km
[17] = molecular target: T4, GCK (Homo sapiens, UniProt Q12851); assay: Kinase panel (Millipore); type: biochemical; details: 1 µM, ATP at Km
T4 construct: purchased Millipore (KinaseProfiler) kinase panel

[18] = molecular target: MEK1 (Homo sapiens, UniProt Q02750); assay: Kinase panel (Millipore); type: biochemical; details: 1 µM, ATP at Km
[19] = molecular target: T5, SNK (Homo sapiens, UniProt Q9NYY3); assay: Kinase panel (Millipore); type: biochemical; details: 1 µM, ATP at Km
T5 construct: purchased Millipore (KinaseProfiler) kinase panel

[20] = molecular target: T6, MUSK (Homo sapiens, UniProt O15146); assay: Kinase panel (Millipore); type: biochemical; details: 1 µM, ATP at Km
T6 construct: purchased Millipore (KinaseProfiler) kinase panel

[21] = molecular target: CSK (Homo sapiens, UniProt P41240); assay: Kinase panel (Millipore); type: biochemical; details: 1 µM, ATP at Km
[22] = molecular target: PHKGAMMA2 (Homo sapiens, UniProt P15735); assay: Kinase panel (Millipore); type: biochemical; details: 1 µM, ATP at Km
[23] = molecular target: T7, MST3 (Homo sapiens, UniProt Q9Y6E0); assay: Kinase panel (Millipore); type: biochemical; details: 1 µM, ATP at Km
T7 construct: purchased Millipore (KinaseProfiler) kinase panel

[24] = molecular target: T8, MRCKALPHA (Homo sapiens, UniProt Q5VT25); assay: Kinase panel (Millipore); type: biochemical; details: 1 µM, ATP at Km
T8 construct: purchased Millipore (KinaseProfiler) kinase panel

[25] = molecular target: ROCK-I (Homo sapiens, UniProt Q13464); assay: Kinase panel (Millipore); type: biochemical; details: 1 µM, ATP at Km
[26] = molecular target: cMET (Y1248D) (Homo sapiens, UniProt P08581, Y1230D); details: 1 µM, ATP at Km
[27] = molecular target: CDK1/CYCLINB (Homo sapiens, UniProt P06493); details: 1 µM, ATP at Km
[28] = test system: TR (TH); details: 10 µM, agonist radioligand
[29] = molecular target: BLK (Homo sapiens, UniProt P51451); assay: Kinase panel (Millipore); type: biochemical; details: 1 µM, ATP at Km
[30] = molecular target: SAPK4 (Homo sapiens, UniProt O15264); assay: Kinase panel (Millipore); type: biochemical; details: 1 µM, ATP at Km
[31] = molecular target: PDK1 (Homo sapiens, UniProt O15530); assay: Kinase panel (Millipore); type: biochemical; details: 1 µM, ATP at Km
[32] = molecular target: ERalpha (h) (Homo sapiens, UniProt P03372); assay: CEREP binding assay; details: agonist fluoligand, read-out: % Inhibition of Control Specific Binding
[33] = molecular target: BTK(R28H) (Homo sapiens, UniProt Q06187, R28H); details: 1 µM, ATP at Km
[34] = molecular target: cMET (D1246H) (Homo sapiens, UniProt P08581, D1228H); details: 1 µM, ATP at Km
[35] = molecular target: CDK5/P35 (Homo sapiens, UniProt Q00535); details: 1 µM, ATP at Km
[36] = molecular target: T9, BLT1 (LTB4) (h) (Homo sapiens, UniProt Q15722); assay: CEREP binding assay; details: agonist radioligand, read-out: % Inhibition of Control Specific Binding
T9 construct: purchased Millipore (KinaseProfiler) kinase panel

[37] = molecular target: PAK6 (Homo sapiens, UniProt Q9NQU5); assay: Kinase panel (Millipore); type: biochemical; details: 1 µM, ATP at Km
[38] = molecular target: FGFR2(N549H) (Homo sapiens, UniProt P21802, N549H); details: 1 µM, ATP at Km
[39] = molecular target: T10, BRK (Homo sapiens, UniProt Q13882); assay: Kinase panel (Millipore); type: biochemical; details: 1 µM, ATP at Km
T10 construct: purchased Millipore (KinaseProfiler) kinase panel

[40] = molecular target: T11, FER (Homo sapiens, UniProt P16591); assay: Kinase panel (Millipore); type: biochemical; details: 1 µM, ATP at Km
T11 construct: purchased Millipore (KinaseProfiler) kinase panel

[41] = molecular target: T12, ITK (Homo sapiens, UniProt Q08881); assay: Kinase panel (Millipore); type: biochemical; details: 1 µM, ATP at Km
T12 construct: purchased Millipore (KinaseProfiler) kinase panel

[42] = 120 min, pH 7.4

CRAF, sequence (P04049 whole entry): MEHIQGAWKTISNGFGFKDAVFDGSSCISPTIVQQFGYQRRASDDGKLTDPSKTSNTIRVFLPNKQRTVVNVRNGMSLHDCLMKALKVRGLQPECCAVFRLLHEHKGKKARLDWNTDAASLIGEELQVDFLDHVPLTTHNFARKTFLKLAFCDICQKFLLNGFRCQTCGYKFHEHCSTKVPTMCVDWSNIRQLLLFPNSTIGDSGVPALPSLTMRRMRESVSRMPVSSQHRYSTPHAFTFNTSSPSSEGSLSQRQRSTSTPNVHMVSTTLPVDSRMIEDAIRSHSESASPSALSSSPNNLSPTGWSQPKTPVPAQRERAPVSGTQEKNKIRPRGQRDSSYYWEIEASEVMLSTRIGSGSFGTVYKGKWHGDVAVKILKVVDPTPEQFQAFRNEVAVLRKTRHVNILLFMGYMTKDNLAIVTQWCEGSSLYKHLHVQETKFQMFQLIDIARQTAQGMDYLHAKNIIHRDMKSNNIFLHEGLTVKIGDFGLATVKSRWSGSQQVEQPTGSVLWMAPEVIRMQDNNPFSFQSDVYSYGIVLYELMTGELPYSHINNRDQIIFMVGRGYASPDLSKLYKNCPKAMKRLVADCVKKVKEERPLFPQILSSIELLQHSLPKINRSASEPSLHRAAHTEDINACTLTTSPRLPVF
T1 sequence (P08069 31-1367): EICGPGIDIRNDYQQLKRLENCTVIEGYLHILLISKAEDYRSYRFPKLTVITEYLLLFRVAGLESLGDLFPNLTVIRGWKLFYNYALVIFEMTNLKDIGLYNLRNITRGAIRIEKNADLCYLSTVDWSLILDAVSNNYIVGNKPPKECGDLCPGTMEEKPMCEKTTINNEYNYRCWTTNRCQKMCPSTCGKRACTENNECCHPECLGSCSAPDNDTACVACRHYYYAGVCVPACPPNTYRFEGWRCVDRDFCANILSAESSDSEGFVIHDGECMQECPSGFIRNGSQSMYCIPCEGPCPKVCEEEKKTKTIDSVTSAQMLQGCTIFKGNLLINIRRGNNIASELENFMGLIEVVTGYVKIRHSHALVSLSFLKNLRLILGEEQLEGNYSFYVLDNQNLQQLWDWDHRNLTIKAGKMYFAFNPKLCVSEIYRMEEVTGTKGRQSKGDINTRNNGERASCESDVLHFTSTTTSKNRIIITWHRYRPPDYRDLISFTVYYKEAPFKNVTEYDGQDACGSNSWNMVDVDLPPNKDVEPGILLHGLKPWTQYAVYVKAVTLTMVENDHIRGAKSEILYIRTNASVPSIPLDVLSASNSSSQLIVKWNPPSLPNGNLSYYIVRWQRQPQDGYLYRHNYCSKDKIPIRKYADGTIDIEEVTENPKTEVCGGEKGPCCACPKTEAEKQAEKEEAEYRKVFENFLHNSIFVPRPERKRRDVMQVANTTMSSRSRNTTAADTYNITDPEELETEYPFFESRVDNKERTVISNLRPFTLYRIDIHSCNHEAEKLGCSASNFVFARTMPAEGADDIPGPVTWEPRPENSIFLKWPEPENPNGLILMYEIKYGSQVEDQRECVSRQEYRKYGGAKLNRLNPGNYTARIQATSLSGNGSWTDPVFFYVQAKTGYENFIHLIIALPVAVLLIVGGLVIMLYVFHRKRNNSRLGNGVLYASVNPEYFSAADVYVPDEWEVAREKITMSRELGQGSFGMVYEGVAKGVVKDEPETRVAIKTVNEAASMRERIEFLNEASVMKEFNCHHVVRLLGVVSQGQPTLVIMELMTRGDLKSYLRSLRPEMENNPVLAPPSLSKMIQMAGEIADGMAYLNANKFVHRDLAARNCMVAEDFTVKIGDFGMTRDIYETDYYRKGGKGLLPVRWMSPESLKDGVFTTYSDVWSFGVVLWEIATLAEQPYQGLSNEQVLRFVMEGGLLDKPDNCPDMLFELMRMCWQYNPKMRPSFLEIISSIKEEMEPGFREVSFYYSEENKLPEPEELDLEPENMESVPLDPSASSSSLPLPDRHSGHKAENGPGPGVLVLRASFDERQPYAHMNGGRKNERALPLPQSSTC
PDK1, sequence (O15530 whole entry): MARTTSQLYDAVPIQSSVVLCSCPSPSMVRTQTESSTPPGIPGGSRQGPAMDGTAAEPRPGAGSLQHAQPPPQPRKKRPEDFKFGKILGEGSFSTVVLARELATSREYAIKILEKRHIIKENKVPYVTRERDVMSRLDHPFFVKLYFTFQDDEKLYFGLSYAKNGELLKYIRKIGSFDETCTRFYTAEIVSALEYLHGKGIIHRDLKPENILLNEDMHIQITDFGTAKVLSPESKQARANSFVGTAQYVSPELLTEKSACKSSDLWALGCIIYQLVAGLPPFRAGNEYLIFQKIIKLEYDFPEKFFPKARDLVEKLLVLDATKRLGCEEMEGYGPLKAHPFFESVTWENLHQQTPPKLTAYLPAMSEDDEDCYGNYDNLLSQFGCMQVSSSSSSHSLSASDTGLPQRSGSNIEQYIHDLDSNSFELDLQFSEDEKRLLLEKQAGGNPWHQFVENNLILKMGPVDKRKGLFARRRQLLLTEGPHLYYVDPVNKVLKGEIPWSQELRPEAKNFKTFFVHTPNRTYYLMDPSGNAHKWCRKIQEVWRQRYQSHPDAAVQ
T11 sequence (P16591 whole entry): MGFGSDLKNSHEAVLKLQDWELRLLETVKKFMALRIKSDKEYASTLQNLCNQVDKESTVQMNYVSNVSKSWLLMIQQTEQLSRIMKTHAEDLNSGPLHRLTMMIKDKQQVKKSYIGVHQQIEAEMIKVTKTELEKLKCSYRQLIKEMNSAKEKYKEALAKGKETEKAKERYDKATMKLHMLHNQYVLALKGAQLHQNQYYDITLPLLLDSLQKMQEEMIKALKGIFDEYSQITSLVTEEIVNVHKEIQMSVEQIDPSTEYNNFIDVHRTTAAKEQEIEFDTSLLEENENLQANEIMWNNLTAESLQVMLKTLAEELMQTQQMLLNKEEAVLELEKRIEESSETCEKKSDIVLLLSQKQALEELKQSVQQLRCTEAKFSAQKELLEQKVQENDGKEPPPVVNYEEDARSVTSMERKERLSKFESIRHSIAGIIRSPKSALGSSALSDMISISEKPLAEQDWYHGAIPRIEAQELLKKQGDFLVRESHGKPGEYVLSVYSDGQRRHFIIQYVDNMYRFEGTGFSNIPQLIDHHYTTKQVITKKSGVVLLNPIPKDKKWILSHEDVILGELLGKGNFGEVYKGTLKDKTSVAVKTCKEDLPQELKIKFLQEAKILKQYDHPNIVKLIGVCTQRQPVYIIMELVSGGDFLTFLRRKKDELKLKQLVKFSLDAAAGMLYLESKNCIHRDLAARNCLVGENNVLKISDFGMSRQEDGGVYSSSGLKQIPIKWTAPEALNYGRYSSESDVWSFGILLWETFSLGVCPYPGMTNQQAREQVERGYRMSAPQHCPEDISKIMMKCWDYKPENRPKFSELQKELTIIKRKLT
T9 sequence (Q15722 whole entry): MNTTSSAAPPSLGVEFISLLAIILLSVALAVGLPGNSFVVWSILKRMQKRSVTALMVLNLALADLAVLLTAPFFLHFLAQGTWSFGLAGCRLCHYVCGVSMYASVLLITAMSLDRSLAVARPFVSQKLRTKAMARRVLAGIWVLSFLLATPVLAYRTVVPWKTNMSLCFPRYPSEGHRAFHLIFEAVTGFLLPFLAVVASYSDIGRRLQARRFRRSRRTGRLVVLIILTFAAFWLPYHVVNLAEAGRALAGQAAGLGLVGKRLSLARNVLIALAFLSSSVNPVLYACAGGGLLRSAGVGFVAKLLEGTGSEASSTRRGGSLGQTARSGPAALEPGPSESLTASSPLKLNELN
T10 sequence (Q13882 whole entry): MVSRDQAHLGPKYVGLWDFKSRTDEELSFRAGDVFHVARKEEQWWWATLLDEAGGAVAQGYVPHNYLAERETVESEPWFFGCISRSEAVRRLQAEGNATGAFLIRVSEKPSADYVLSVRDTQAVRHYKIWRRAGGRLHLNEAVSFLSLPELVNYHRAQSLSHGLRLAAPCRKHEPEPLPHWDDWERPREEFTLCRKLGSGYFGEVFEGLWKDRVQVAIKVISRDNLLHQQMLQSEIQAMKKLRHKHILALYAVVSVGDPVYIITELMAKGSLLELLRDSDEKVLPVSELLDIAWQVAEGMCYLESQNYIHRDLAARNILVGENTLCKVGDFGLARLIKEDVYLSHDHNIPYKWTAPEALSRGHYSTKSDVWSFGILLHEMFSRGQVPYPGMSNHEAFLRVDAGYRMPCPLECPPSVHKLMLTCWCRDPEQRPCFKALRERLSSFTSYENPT
T2 sequence (P34998 24-415): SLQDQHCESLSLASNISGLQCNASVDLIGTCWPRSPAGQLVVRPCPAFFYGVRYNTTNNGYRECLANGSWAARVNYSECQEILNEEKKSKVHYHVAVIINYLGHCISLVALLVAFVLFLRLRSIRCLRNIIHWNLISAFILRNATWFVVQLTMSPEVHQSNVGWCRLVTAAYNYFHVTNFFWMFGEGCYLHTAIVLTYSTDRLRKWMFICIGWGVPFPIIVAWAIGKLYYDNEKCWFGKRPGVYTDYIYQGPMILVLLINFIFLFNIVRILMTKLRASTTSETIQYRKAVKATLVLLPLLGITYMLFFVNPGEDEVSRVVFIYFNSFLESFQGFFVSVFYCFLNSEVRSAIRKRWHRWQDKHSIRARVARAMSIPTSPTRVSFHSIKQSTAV
CCK2 (CCKB) (h), sequence (P32239 whole entry): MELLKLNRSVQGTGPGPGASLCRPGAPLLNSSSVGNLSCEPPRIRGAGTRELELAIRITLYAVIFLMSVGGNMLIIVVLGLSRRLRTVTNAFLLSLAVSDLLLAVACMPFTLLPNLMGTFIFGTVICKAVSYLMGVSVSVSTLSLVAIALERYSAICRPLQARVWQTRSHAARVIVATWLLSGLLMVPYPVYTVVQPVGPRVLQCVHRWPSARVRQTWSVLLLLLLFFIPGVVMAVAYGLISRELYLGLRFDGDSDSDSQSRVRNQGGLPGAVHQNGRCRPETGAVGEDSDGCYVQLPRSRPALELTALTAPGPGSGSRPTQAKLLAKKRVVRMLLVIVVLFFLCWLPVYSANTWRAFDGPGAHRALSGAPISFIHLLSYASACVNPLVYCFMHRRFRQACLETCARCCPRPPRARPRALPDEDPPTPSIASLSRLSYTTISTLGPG

Cn1ncc2cc(-c3cnc(N)c(Cl)c3N3CCC4(CCNC4=O)CC3)ccc21 [Compound 109, 8-(2-Amino-3-chloro-5-(1-methyl-1H-indazol-5-yl)pyridin-4-yl)-2,8-diazaspiro[4.5]decan-1-one]
% effect [1]: 1%
inhibition at 10 µM [2]: -7%
% Inhibition of Control Specific Binding [3]: 12%
inhibition at 10 µM [4]: 0%
% effect [5]: -5%
% effect [6]: -3%
% effect [7]: -3%
% effect [8]: -5%
% effect [9]: 17%
inhibition at 10 µM [10]: -5%
% effect [11]: -11%
% effect [12]: -18%
% effect [13]: -10%
% effect [14]: -9%
% effect [15]: -7%
% effect [16]: 6%
% effect [17]: -10%
% effect [18]: -13%
% effect [19]: 11%
% effect [20]: 3%
% effect [21]: 8%
% effect [22]: 11%
% effect [23]: -11%
% effect [24]: -3%
% effect [25]: 6%
% effect [26]: -1%
% effect [27]: -12%
% Inhibition of Control Specific Binding [28]: -13%
% effect [29]: 11%
% effect [30]: -1%
% effect [31]: 1%
inhibition at 10 µM [32]: 0%
% effect [33]: 2%
% effect [34]: -8%
% effect [35]: 1%
inhibition at 10 µM [36]: 16%
% effect [37]: 2%
% effect [38]: 1%
% effect [39]: 13%
% effect [40]: 15%
% effect [41]: -9%
Solubility Kinetic [42]: 137 µM (≈ 56.3 µg/mL)
